Tested on: PABPC1 PABC
Type: binding, human
Settings: DMS-BM library, bait PABPC1 PABC, row aa = residue at this position; for DMS-derived PSSM value, position T3 / DMS-derived PSSM value, position T1: T = wild type; for DMS-derived PSSM value, position L4 / DMS-derived PSSM value, position L2 / DMS-derived PSSM value (averaged), position L2: L = wild type
[1] = prey ATXN2, peptide KSTLNPNAKEFNPRSF, N = wild type
[2] = prey ATXN2, TLNPNAKEFNPRSF(averaged) over the two overlapping peptides, N = wild type
[3] = prey ATXN2, peptide KSTLNPNAKEFNPRSF, R = wild type
[4] = prey ATXN2, peptide TLNPNAKEFNPRSFSQ, E = wild type
[5] = prey ATXN2, TLNPNAKEFNPRSF(averaged) over the two overlapping peptides, P = wild type
[6] = prey ATXN2, TLNPNAKEFNPRSF(averaged) over the two overlapping peptides, A = wild type
[7] = prey ATXN2, peptide KSTLNPNAKEFNPRSF
[8] = prey ATXN2, peptide TLNPNAKEFNPRSFSQ, K = wild type
[9] = prey ATXN2, peptide KSTLNPNAKEFNPRSF, F = wild type
[10] = prey ATXN2, TLNPNAKEFNPRSF(averaged) over the two overlapping peptides, F = wild type
[11] = prey ATXN2, TLNPNAKEFNPRSF(averaged) over the two overlapping peptides, K = wild type
[12] = prey ATXN2, peptide TLNPNAKEFNPRSFSQ, S = wild type
[13] = prey ATXN2, peptide TLNPNAKEFNPRSFSQ, P = wild type
[14] = prey ATXN2, peptide TLNPNAKEFNPRSFSQ, A = wild type
[15] = prey ATXN2, peptide TLNPNAKEFNPRSFSQ, N = wild type
[16] = prey ATXN2, peptide TLNPNAKEFNPRSFSQ
[17] = prey ATXN2, peptide KSTLNPNAKEFNPRSF, P = wild type
[18] = prey ATXN2, TLNPNAKEFNPRSF(averaged) over the two overlapping peptides

KSTLNPNAKEFNPRSF N5M (KSTLMPNAKEFNPRSF)
DMS-derived PSSM value, position N5 [1]: 0

TLNPNAKEFNPRSF(averaged) N10T (TLNPNAKEFTPRSF)
DMS-derived PSSM value (averaged), position N10 [2]: 0.03227

KSTLNPNAKEFNPRSF R14H (KSTLNPNAKEFNPHSF)
DMS-derived PSSM value, position R14 [3]: 0.02913

TLNPNAKEFNPRSFSQ E8R (TLNPNAKRFNPRSFSQ)
DMS-derived PSSM value, position E8 [4]: 0

TLNPNAKEFNPRSF(averaged) P4T (TLNTNAKEFNPRSF)
DMS-derived PSSM value (averaged), position P4 [5]: 0.01555

TLNPNAKEFNPRSF(averaged) A6K (TLNPNKKEFNPRSF)
DMS-derived PSSM value (averaged), position A6 [6]: 0

KSTLNPNAKEFNPRSF T3S (KSSLNPNAKEFNPRSF)
DMS-derived PSSM value, position T3 [7]: 0

TLNPNAKEFNPRSF(averaged) E8Y (TLNPNAKYFNPRSF)
DMS-derived PSSM value (averaged), position E8 (prey ATXN2, TLNPNAKEFNPRSF(averaged) over the two overlapping peptides, E = wild type): 0.02496

TLNPNAKEFNPRSFSQ K7A (TLNPNAAEFNPRSFSQ)
DMS-derived PSSM value, position K7 [8]: 0.2382

KSTLNPNAKEFNPRSF F16P (KSTLNPNAKEFNPRSP)
DMS-derived PSSM value, position F16 [9]: 0.0009324

TLNPNAKEFNPRSF(averaged) S13W (TLNPNAKEFNPRWF)
DMS-derived PSSM value (averaged), position S13 (prey ATXN2, TLNPNAKEFNPRSF(averaged) over the two overlapping peptides, S = wild type): 0.01751

TLNPNAKEFNPRSFSQ K7T (TLNPNATEFNPRSFSQ)
DMS-derived PSSM value, position K7 [8]: 0.006845

TLNPNAKEFNPRSF(averaged) F14H (TLNPNAKEFNPRSH)
DMS-derived PSSM value (averaged), position F14 [10]: 0.06346

KSTLNPNAKEFNPRSF R14N (KSTLNPNAKEFNPNSF)
DMS-derived PSSM value, position R14 [3]: 0.007229

TLNPNAKEFNPRSF(averaged) P4Q (TLNQNAKEFNPRSF)
DMS-derived PSSM value (averaged), position P4 [5]: 0.01774

TLNPNAKEFNPRSF(averaged) K7Y (TLNPNAYEFNPRSF)
DMS-derived PSSM value (averaged), position K7 [11]: 0.2476

TLNPNAKEFNPRSFSQ S15T (TLNPNAKEFNPRSFTQ)
DMS-derived PSSM value, position S15 [12]: 0.0005737

TLNPNAKEFNPRSF(averaged) N5M (TLNPMAKEFNPRSF)
DMS-derived PSSM value (averaged), position N5 [2]: 0.3686

TLNPNAKEFNPRSFSQ P11R (TLNPNAKEFNRRSFSQ)
DMS-derived PSSM value, position P11 [13]: 0.006355

TLNPNAKEFNPRSFSQ K7W (TLNPNAWEFNPRSFSQ)
DMS-derived PSSM value, position K7 [8]: 0.03322

TLNPNAKEFNPRSFSQ A6V (TLNPNVKEFNPRSFSQ)
DMS-derived PSSM value, position A6 [14]: 0.2197

TLNPNAKEFNPRSFSQ N10I (TLNPNAKEFIPRSFSQ)
DMS-derived PSSM value, position N10 [15]: 0.00743

TLNPNAKEFNPRSFSQ S13T (TLNPNAKEFNPRTFSQ)
DMS-derived PSSM value, position S13 [12]: 0.105

KSTLNPNAKEFNPRSF L4V (KSTVNPNAKEFNPRSF)
DMS-derived PSSM value, position L4 [7]: 0.01089

KSTLNPNAKEFNPRSF T3F (KSFLNPNAKEFNPRSF)
DMS-derived PSSM value, position T3 [7]: 0.07157

TLNPNAKEFNPRSFSQ N3F (TLFPNAKEFNPRSFSQ)
DMS-derived PSSM value, position N3 [15]: 0

TLNPNAKEFNPRSFSQ N10A (TLNPNAKEFAPRSFSQ)
DMS-derived PSSM value, position N10 [15]: 0.03895

TLNPNAKEFNPRSFSQ N10K (TLNPNAKEFKPRSFSQ)
DMS-derived PSSM value, position N10 [15]: 0.01052

TLNPNAKEFNPRSF(averaged) P11K (TLNPNAKEFNKRSF)
DMS-derived PSSM value (averaged), position P11 [5]: 0

KSTLNPNAKEFNPRSF L4Y (KSTYNPNAKEFNPRSF)
DMS-derived PSSM value, position L4 [7]: 0

TLNPNAKEFNPRSFSQ P11H (TLNPNAKEFNHRSFSQ)
DMS-derived PSSM value, position P11 [13]: 0.157

KSTLNPNAKEFNPRSF N12F (KSTLNPNAKEFFPRSF)
DMS-derived PSSM value, position N12 [1]: 0.05323

KSTLNPNAKEFNPRSF F11L (KSTLNPNAKELNPRSF)
DMS-derived PSSM value, position F11 [9]: 0

KSTLNPNAKEFNPRSF N7K (KSTLNPKAKEFNPRSF)
DMS-derived PSSM value, position N7 [1]: 0.007258

KSTLNPNAKEFNPRSF N5Q (KSTLQPNAKEFNPRSF)
DMS-derived PSSM value, position N5 [1]: 0

TLNPNAKEFNPRSFSQ L2M (TMNPNAKEFNPRSFSQ)
DMS-derived PSSM value, position L2 [16]: 0.1261

KSTLNPNAKEFNPRSF R14K (KSTLNPNAKEFNPKSF)
DMS-derived PSSM value, position R14 [3]: 0.002275

KSTLNPNAKEFNPRSF P13L (KSTLNPNAKEFNLRSF)
DMS-derived PSSM value, position P13 [17]: 0.006424

TLNPNAKEFNPRSF(averaged) A6T (TLNPNTKEFNPRSF)
DMS-derived PSSM value (averaged), position A6 [6]: 0.133

KSTLNPNAKEFNPRSF K9A (KSTLNPNAAEFNPRSF)
DMS-derived PSSM value, position K9 (prey ATXN2, peptide KSTLNPNAKEFNPRSF, K = wild type): 0.002649

TLNPNAKEFNPRSFSQ K7D (TLNPNADEFNPRSFSQ)
DMS-derived PSSM value, position K7 [8]: 0.01281

TLNPNAKEFNPRSFSQ K7I (TLNPNAIEFNPRSFSQ)
DMS-derived PSSM value, position K7 [8]: 0.003703

TLNPNAKEFNPRSF(averaged) N5I (TLNPIAKEFNPRSF)
DMS-derived PSSM value (averaged), position N5 [2]: 0.2839

TLNPNAKEFNPRSF(averaged) F14Y (TLNPNAKEFNPRSY)
DMS-derived PSSM value (averaged), position F14 [10]: 0.08672

TLNPNAKEFNPRSFSQ P11L (TLNPNAKEFNLRSFSQ)
DMS-derived PSSM value, position P11 [13]: 0.02416

KSTLNPNAKEFNPRSF A8N (KSTLNPNNKEFNPRSF)
DMS-derived PSSM value, position A8 (prey ATXN2, peptide KSTLNPNAKEFNPRSF, A = wild type): 0

TLNPNAKEFNPRSFSQ T1I (ILNPNAKEFNPRSFSQ)
DMS-derived PSSM value, position T1 [16]: 0.00436

KSTLNPNAKEFNPRSF P6G (KSTLNGNAKEFNPRSF)
DMS-derived PSSM value, position P6 [17]: 0.01358

TLNPNAKEFNPRSF(averaged) N10Q (TLNPNAKEFQPRSF)
DMS-derived PSSM value (averaged), position N10 [2]: 0.06161

TLNPNAKEFNPRSF(averaged) P4H (TLNHNAKEFNPRSF)
DMS-derived PSSM value (averaged), position P4 [5]: 0.02342

TLNPNAKEFNPRSF(averaged) F9Y (TLNPNAKEYNPRSF)
DMS-derived PSSM value (averaged), position F9 [10]: 0.1609

TLNPNAKEFNPRSFSQ S13V (TLNPNAKEFNPRVFSQ)
DMS-derived PSSM value, position S13 [12]: 0.02255

TLNPNAKEFNPRSFSQ T1M (MLNPNAKEFNPRSFSQ)
DMS-derived PSSM value, position T1 [16]: 0.006287

TLNPNAKEFNPRSF(averaged) R12L (TLNPNAKEFNPLSF)
DMS-derived PSSM value (averaged), position R12 (prey ATXN2, TLNPNAKEFNPRSF(averaged) over the two overlapping peptides, R = wild type): 0.02116

TLNPNAKEFNPRSF(averaged) N5P (TLNPPAKEFNPRSF)
DMS-derived PSSM value (averaged), position N5 [2]: 4.119e-5

TLNPNAKEFNPRSF(averaged) K7A (TLNPNAAEFNPRSF)
DMS-derived PSSM value (averaged), position K7 [11]: 0.1204

TLNPNAKEFNPRSFSQ P4Q (TLNQNAKEFNPRSFSQ)
DMS-derived PSSM value, position P4 [13]: 0.03549

TLNPNAKEFNPRSFSQ L2E (TENPNAKEFNPRSFSQ)
DMS-derived PSSM value, position L2 [16]: 0.08907

TLNPNAKEFNPRSF(averaged) L2H (THNPNAKEFNPRSF)
DMS-derived PSSM value (averaged), position L2 [18]: 0

TLNPNAKEFNPRSFSQ A6L (TLNPNLKEFNPRSFSQ)
DMS-derived PSSM value, position A6 [14]: 0

TLNPNAKEFNPRSFSQ N10F (TLNPNAKEFFPRSFSQ)
DMS-derived PSSM value, position N10 [15]: 0.002727

TLNPNAKEFNPRSFSQ N3D (TLDPNAKEFNPRSFSQ)
DMS-derived PSSM value, position N3 [15]: 0.1652

TLNPNAKEFNPRSFSQ T1K (KLNPNAKEFNPRSFSQ)
DMS-derived PSSM value, position T1 [16]: 0.03828

TLNPNAKEFNPRSFSQ F9Y (TLNPNAKEYNPRSFSQ)
DMS-derived PSSM value, position F9 (prey ATXN2, peptide TLNPNAKEFNPRSFSQ, F = wild type): 0.02013

TLNPNAKEFNPRSF(averaged) L2Q (TQNPNAKEFNPRSF)
DMS-derived PSSM value (averaged), position L2 [18]: 0

TLNPNAKEFNPRSFSQ E8V (TLNPNAKVFNPRSFSQ)
DMS-derived PSSM value, position E8 [4]: 0.09834

KSTLNPNAKEFNPRSF S2V (KVTLNPNAKEFNPRSF)
DMS-derived PSSM value, position S2 (prey ATXN2, peptide KSTLNPNAKEFNPRSF, S = wild type): 0.1043
